Assays:
α6β3γ2 = target: T1, α6β3γ2 (Homo sapiens, UniProt P18507+Q16445); assay: Radioligand binding, membranes of stably transfected cells
T1 construct: expressed in transfected cells

α3β3γ2 = target: T2, α3β3γ2 (Homo sapiens, UniProt P18507+P34903); assay: as above
T2 construct: expressed in transfected cells
T2 sequence (P34903 29-492): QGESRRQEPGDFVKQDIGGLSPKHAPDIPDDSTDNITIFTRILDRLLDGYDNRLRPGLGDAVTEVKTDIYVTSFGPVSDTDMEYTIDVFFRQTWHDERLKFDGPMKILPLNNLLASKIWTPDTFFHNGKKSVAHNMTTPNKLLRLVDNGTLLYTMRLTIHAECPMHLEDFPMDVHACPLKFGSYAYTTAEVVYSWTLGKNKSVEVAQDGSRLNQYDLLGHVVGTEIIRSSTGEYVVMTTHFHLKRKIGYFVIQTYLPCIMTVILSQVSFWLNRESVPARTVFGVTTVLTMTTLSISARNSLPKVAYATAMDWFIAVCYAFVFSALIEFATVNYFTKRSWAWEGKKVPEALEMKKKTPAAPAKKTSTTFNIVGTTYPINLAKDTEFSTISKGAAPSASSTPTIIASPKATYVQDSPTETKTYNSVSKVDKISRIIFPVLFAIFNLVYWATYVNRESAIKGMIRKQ
T2 sequence (P28472 26-473 partner): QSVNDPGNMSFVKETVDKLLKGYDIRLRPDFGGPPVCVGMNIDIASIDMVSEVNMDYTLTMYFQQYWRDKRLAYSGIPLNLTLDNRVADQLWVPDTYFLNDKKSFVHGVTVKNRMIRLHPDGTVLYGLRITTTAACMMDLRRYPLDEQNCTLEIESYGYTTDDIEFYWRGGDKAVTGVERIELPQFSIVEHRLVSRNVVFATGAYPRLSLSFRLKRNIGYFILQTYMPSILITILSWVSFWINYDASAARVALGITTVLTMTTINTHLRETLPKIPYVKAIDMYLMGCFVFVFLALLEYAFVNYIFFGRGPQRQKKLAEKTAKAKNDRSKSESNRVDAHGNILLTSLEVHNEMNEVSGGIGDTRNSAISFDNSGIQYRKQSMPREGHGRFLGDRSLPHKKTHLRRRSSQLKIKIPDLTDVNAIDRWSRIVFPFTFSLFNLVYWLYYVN
T2 sequence (P18507 40-467 isoform P18507-1 limits assumed): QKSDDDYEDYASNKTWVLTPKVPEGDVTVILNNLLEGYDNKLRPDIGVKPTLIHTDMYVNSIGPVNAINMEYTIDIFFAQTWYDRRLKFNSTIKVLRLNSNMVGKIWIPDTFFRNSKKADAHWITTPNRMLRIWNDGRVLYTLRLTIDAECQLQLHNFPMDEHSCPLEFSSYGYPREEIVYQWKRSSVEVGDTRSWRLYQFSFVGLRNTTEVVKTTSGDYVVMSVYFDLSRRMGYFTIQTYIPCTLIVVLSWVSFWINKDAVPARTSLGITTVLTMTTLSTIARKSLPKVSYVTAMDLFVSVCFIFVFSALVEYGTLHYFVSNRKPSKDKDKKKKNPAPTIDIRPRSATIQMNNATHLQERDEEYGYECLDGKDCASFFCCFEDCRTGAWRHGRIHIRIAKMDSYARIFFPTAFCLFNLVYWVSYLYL

T1 sequence (Q16445 20-453): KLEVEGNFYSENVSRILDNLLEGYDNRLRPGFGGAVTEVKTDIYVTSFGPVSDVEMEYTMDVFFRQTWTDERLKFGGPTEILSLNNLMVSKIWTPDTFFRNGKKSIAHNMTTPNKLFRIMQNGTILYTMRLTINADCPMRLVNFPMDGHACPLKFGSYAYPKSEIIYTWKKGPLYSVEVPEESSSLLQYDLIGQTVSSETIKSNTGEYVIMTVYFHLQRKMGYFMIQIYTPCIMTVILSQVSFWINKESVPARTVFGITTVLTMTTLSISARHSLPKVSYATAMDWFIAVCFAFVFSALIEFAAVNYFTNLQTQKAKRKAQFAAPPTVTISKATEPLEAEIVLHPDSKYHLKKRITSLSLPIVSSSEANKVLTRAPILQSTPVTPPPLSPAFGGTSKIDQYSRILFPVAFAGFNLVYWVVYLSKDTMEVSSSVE
T1 sequence (P28472 26-473 partner): as the sequence (P28472 26-473 partner) above
T1 sequence (P18507 40-467 isoform P18507-1 limits assumed): as the sequence (P18507 40-467 isoform P18507-1 limits assumed) above

CCOC(=O)c1ncn2c1[C@@H]1CCCN1C(=O)c1cc(OC)ccc1-2 [FG 8094, 9H-imidazo[1,5-a]pyrrolo[2,1-C][1,4]benzodiazepine-1-carboxylic acid, 11, 12, 13, 13a-tetrahydro-7-methoxy-9-oxo-, ethyl ester, (S)-(9CI)]
Ki (α6β3γ2): 83.2 ± 4.5 nM
Ki (α3β3γ2): 24.5 ± 2 nM

— patent US6426343B1, “Preparation and use of a specific GABA-Aα5 receptor ligand for treatment of Alzheimer's disease” (Merck Sharp & Dohme Ltd., priority 1995, dated 2002)
